“Also recorded” adds a separate entry of the source.
Columns and labels:
MEF cells = experiment: neurite length and branching in MEF cultures; format: cell-based, mouse; conditions: 10 μM and 100 μM, 7 days
Procedure: Mouse embryonic day 16 forebrain cells were prepared and treated as described in Example 17.
The morphology of MEF cells after a 7 day treatment with retinoic acid/valproic acid or with compound 1a (ENDF1) is illustrated in FIG. 4. Cells were fixed and stained with DCX and Map2ab antibodies as described in Example 18. Three independent experiments were performed and evaluated. Data acquisition was done by using the software Volocity 5.3.1 for measurement and photographical documentation. The following parameters were analyzed: polarity, process, number of branches, number and length of sprouts, neurite-length and growth cone morphology.
For quantitative analysis of neurite length, neurons with long neurites were taken into consideration. […] For quantitative analysis of neurite branching, the branch density (number of branches per 100 μm of neurite length) was counted. For analysis, the DCX staining with DMEM-KO medium was used, since DCX, in contrast to Map2ab, is localized throughout the neurites.

[1] = tested on: promoter of the neuronal precursor specific gene doublecortin (DCX); experiment: DCX promoter firefly-luciferase assay in primary fetal mouse brain derived (MEF) cells; format: cell-based; conditions: for effect on DCX promoter induction: 10 μM, MEF cells, three days; for stimulatory effect on the DCX promoter activity (FF/R relative to control): DCX promoter-luciferase transfected MEF cells, stimulated three days
Procedure: Primary mouse embryonic day 16 forebrain (MEF) cultures were prepared as follows. Pregnant NMRI mice (Charles River Laboratories, Sulzfeld, Germany) were sacrificed and the uteri promptly removed and immersed in ice-cold Dulbecco's phosphate buffered saline solution—DPBS (PAA, Pasching, Austria). Eight embryonic day (E) 16 embryos were released from the uteri; forebrains were taken out, separated from surrounding tissues and mechanically dissociated using a razor blade. Subsequently the dissociated cells were collected by 5 min centrifugation at 120×g. The pellet was resuspended in 10 ml PPD-solution containing 0.01% papain (Worthington, England), 0.1% Dispasell (Roche, Basel, Switzerland), 0.01% DNasel (Worthington, England), 12.4 mM MgSO4 dissolved in HBSS w/o Ca/Mg (PAA, Pasching, Austria). The cell suspension was incubated at 37° C. and triturated every ten minutes for three times. The cell suspension was then centrifuged at 120×g for 5 minutes and washed three times in Neurobasal medium (Gibco BRL, Germany) supplemented with 2% (v/v) B27 (Gibco BRL, Karlsruhe), 2 mM L-glutamine, 100 μg/ml Penicillin/Streptomycin (PAN Biotech GmbH, Aidenbach, Germany). Finally, the cell preparation was resuspended in 12 ml Neurobasal medium supplemented with B27 (Gibco BRL, Karlsruhe), 2 mM L-glutamine, 100 μg/ml Penicillin/Streptomycin (PAN Biotech GmbH, Aidenbach, Germany), 20 ng/ml Epidermal Growth Factor—rhEGF, 20 ng/ml Fibroblast Growth Factor—rhFGF (R&D Systems, Wiesbaden-Nordenstadt, Germany) and 2 μg/ml Heparin (Sigma-Aldrich, Taufkirchen, Germany) (NB plus all), seeded in one T75 flask (TPP, Switzerland) and maintained in a humidified atmosphere at 37° C. and 5% CO2. […] On this day (day 2), half of the medium was refreshed and on day 4 cells were passaged. To passage the cells, the culture medium containing the floating neurospheres was collected in a 15 ml tube (Corning, Lowell, USA) and centrifuged at 120×g for 5 min. For dissociation, the pellet was resuspended in 500 μl Accutase (PAA, Pasching, Austria) and triturated using a 1 ml pipette. The cell suspension was incubated at 37° C. for 10 min, and then, 10 ml media were added. Cell number was determined by Trypan blue exclusion.
Luciferase assays were performed using a noncommercial dual luciferase enzyme assay system (Dyer et al., 2000, Anal Biochem). In this system, a co-transfection with pDCX-Luci and a control vector driving Renilla-luciferase under the CMV promoter was performed. The two different luciferases have different specific substrates and, therefore, the DCX regulatory region driven firefly luciferase activity can be distinguished from CMV driven Renilla-luciferase. For analysis, the firefly luciferase activity was normalized against the CMV driven Renilla-luciferase. For each transfection reaction, a volume containing two million cells was transferred into a 15 ml tube (Corning, Lowell, USA), centrifuged at 120×g for 5 min to pellet the cells and resuspended in 100 μl Amaxa Mouse Neural Stem Cell Nucleofector Kit (Lonza, Kln, Germany). Then, pDCX-Luci (Karl, 2005) and pRL3 (Promega, Mannheim, Germany) (5 μg each) were added and the entire reaction mix was transferred into an Amaxa transfection cuvette. Transfection was done using the A-033 program in the Amaxa Nucleofector II (Lonza, Kln, Germany). Transfected cells were then pipetted into 20 ml of DMEM knockout medium (Gibco BRL, Germany) containing 20% serum replacement supplement (PAN Biotech GmbH, Aidenbach, Germany), 2 mM L-glutamine (PAN Biotech GmbH, Aidenbach, Germany) and 100 μg/ml Penicillin/Streptomycin (PAN Biotech GmbH, Aidenbach, Germany) (DMEM-KO plus supplements) in a 50 ml tube (Corning, Lowell, USA). From this resulting cell suspension, 200 μl per well were plated in Poly-Ornithine/Laminin coated 96-well-luciferase plates (Wimmer & Macho, Wels, Austria) in a cell density of 20.000 cells per well, as described herein below.

Row | Compound | neurite branching/sprouting (branches per 100 μm of neurite length) (MEF cells; DMEM-KO, FIG. 4J) | neurite length (DCX positive neurite profiles) (MEF cells; compared to control and RA+VPA, FIG. 4I) | effect on DCX promoter induction [1] | stimulatory effect on the DCX promoter activity (FF/R relative to control) [1]
1 | COc1cc2c(c(O)c1C(=O)/C=C/c1ccc(O)cc1)C=CC(C)(C)O2 [Compound 1a, (E)-1-(5-hydroxy-7-methoxy-2,2-dimethyl-2H-chromen-6-yl)-3-(4-hydroxyphenyl)prop-2-en-1-one] | high density of branches/sprouts; also recorded: strongly increases neurite length and neurite branching; also recorded: dramatic increase in branching/sprouting | significant increase in neurite length; also recorded: strongly increases neurite length and neurite branching; also recorded: much longer neurites | significantly higher than those exerted by the reference compounds | significantly and strongly induce; also recorded: very strong and significant stimulatory effect
2 | COc1cc2c(c(O)c1C(=O)/C=C/c1ccc(O)cc1)CCC(C)(C)O2 [Compound 1b, (E)-1-(5-hydroxy-7-methoxy-2,2-dimethylchroman-6-yl)-3-(4-hydroxyphenyl)prop-2-en-1-one] | – | – | significantly higher than those exerted by the reference compounds | significantly and strongly induce; also recorded: very strong and significant stimulatory effect

Source: patent publication US9956199B2, “Chromane-like cyclic prenylflavonoids for the medical intervention in neurological disorders” (priority 2011, dated 2018)
